Measured values: patent EP1590332B1, “A PROCESS FOR THE SYNTHESIS OF BISBENZIMIDAZOLES AND THEIR DERIVATIVES” (University of Delhi, priority 2003, dated 2004)
Like-named read-outs stand apart in the source and are kept apart here.

Legend:
Calf thymus DNA = assay: Thermal denaturation / spectroscopic studies of ligand-DNA complex in presence and absence of radiation; type: binding
Experimental: (§1) The cytotoxic effect of DMA and TBZ on exponentially growing tumor cells BMG-1 was studied as a function of time. Cells were treated for 1 h with the ligands and allowed to grow for 24, 48 and 72 hours. The MTT assay was performed at the specified time points. […] There seemed to be no effect on the metabolic status of the treated cells. However, strikingly the metabolic activity of the treated cells seemed to be enhanced as compared to the untreated control cells. To further support our results we have performed cell survival assay at 0.1uM, 10uM and 100uM concentration of drug having control as untreated cell. These experiments were done thrice in six sets. Exponentially growing cells were used in these experiments and cell survival was studied using Macrocolony assay. The plating efficiency was nearly 77%. […] The increase in cell number as a function of time for the control as well as the treated cells remained same. The radioprotective effect of the newly synthesized ligands were studied spectroscopically as well as in human brain glioma cell line BMG-1. The spectroscopic studies done included UV-Vis sepctroscopy, Fluorescence spectroscopy, Anisotropy measurements and Lifetime measurements and Thermal denaturation studies. Calf thymus DNA was chosen as the DNA material and ligands were incubated with the DNA and irradiated at different doses of radiation. […] At the cellular level also, the ligands were incubated with the cells and cell survival assay was performed to study the radioprotective effect of the new ligands in comparison to the parent molecule Hoechst 33342.

BMG-1 cells [1] = assay: cells; details: Homo sapiens
Experimental: (§2) The cytotoxic effect of DMA and TBZ on exponentially growing tumor cells BMG-1 was studied as a function of time. Cells were treated for 1 h with the ligands and allowed to grow for 24, 48 and 72 hours. The MTT assay was performed at the specified time points. […] These experiments were done thrice in six sets. Exponentially growing cells were used in these experiments and cell survival was studied using Macrocolony assay.
(§3) Cells were washed with HBSS and harvested using 0.05% trypsin. […] Colonies were fixed in methanol and stained with 1% crystal violet. Proliferation Kinetics BMG-1 cells were seeded at 7000-8000 cells/ cm^2, and their proliferation kinetics was measured at 24-h intervals by trypsinizinig and counting total cells per flask using a hemocytometer.

[2] = tested on: human brain malignant glioma cell line BMG-1; assay: MTT microtiter plate tetrazolium cytotoxicity assay; type: cell-based; details: cells treated 1 h
Experimental: as §1
The cytotoxicity was determined using the MTT microtiter plate tetrazolium cytotoxicity assay (MTA). The human brain malignant glioma cell line BMG-1 was used. The cytotoxicity assay was performed using 96-well microtiter plates. 3000 cells/ well were plated and treatment of the ligands was done 24 hours post plating. […] 150 µl of DMSO was added and the plate was read at 540 nm with reference at 630 nm.

BMG-1 cells [3] = tested on: BMG-1 cells
Experimental: as §2, §3

BMG-1 cells [4] = assay: Proliferation kinetics (growth kinetics); type: cell-based, human; details: 100µM, exponentially growing cells
Experimental: The cytotoxic effect of DMA and TBZ on exponentially growing tumor cells BMG-1 was studied as a function of time. Cells were treated for 1 h with the ligands and allowed to grow for 24, 48 and 72 hours. The MTT assay was performed at the specified time points. […] There seemed to be no effect on the metabolic status of the treated cells. However, strikingly the metabolic activity of the treated cells seemed to be enhanced as compared to the untreated control cells. To further support our results we have performed cell survival assay at 0.1uM, 10uM and 100uM concentration of drug having control as untreated cell. These experiments were done thrice in six sets. Exponentially growing cells were used in these experiments and cell survival was studied using Macrocolony assay. The plating efficiency was nearly 77%. […] The increase in cell number as a function of time for the control as well as the treated cells remained same. […] The spectroscopic studies done included UV-Vis sepctroscopy, Fluorescence spectroscopy, Anisotropy measurements and Lifetime measurements and Thermal denaturation studies. […]
Cells were washed with HBSS and harvested using 0.05% trypsin. […] Proliferation Kinetics BMG-1 cells were seeded at 7000-8000 cells/ cm^2, and their proliferation kinetics was measured at 24-h intervals by trypsinizinig and counting total cells per flask using a hemocytometer. […]

in vitro = details: bmg-1 cells
Experimental: as §2, §3

Hek cells = assay: Macrocolony assay (cell survival assay) with 5 Gy irradiation; type: cell-based, human; details: 10uM drug added 1h before irradiation; for viability at 10 µM: Homo sapiens, HEK293, light or radiation study, read-out: Survival friction
Experimental: Both cell lines in triplicate were washed with HBSS, plated and grown for four days before harvesting using 0.05% trypsin, Depending on the treatments, 200 to 1200 cells were plated in 90 mm petri dishes and incubated at 37°C in 5% CO2 humidified atmosphere for 8 to 10 days. Colonies were fixed with methanol and stained with 1 % crystal violet Colonies containing more than 50 cells were counted.
Exponentially growing cells, 24 h after plating were irradiated at room temperature in growth medium with a Co-60 source (Gamma cell, AECL, Canada) at a dose rate of 0.5 to 1.2 Gy/min. Concentration of 10µm drug was added 1h before irradiation. Following this procedure, cells were grown for various time intervals to study growth kinetics and plated for Macrocolony assay as shown in the following Tables 3 & 4 and figure 1 & 2 Table 3

[5] = Ratio [ligand]/[DNA] 0.01, Dose 0 Gy
[6] = Ratio [ligand]/[DNA] 0.01, Dose 100 Gy
[7] = Ratio [ligand]/[DNA] 0.1, Dose 0 Gy
[8] = Ratio [ligand]/[DNA] 0.1, Dose 100 Gy
[9] = light or radiation study, read-out: Survival fraction, 1uM, no irradiation
[10] = light or radiation study, read-out: Survival fraction, 10uM, no irradiation
[11] = light or radiation study, read-out: Survival fraction, 100uM, no irradiation
[12] = light or radiation study, read-out: Survival fraction, Table 3: BMG-1, 5 Gy irradiation, 10uM drug added 1h before irradiation
[13] = read-out: Survival fraction, 1uM + 5 Gy
[14] = read-out: Survival fraction, 10uM + 2Gy
[15] = read-out: Survival fraction, 10uM + 5 Gy (Table 2)
[16] = read-out: Survival fraction, 10uM + 10 Gy
[17] = read-out: Survival fraction, 100uM + 5 Gy
[18] = Table 3: BMG-1, 5 Gy irradiation, 10uM drug added 1h before irradiation

CN1CCN(c2ccc3nc(-c4ccc5nc(-c6ccc(O)cc6)[nH]c5c4)[nH]c3c2)CC1 [Hoechst 33258, reference compound]
Tm (Calf thymus DNA; [5]): 71.5 °C | Tm (Calf thymus DNA; [6]): 67.5 °C | Tm (Calf thymus DNA; [7]): 81.7 °C | Tm (Calf thymus DNA; [8]): 79.3 °C

COc1cc(-c2nc3cc(-c4nc5cc(-c6nc7cc(N8CCN(C)CC8)ccc7[nH]6)ccc5[nH]4)ccc3[nH]2)ccc1O [TBZ, 5-(4-methylpiperazine-1-yl)-2-[2'-{2"-(4-hydroxy-3-methoxyphenyl)-5"-benzimidazolyl}-5'-benzimidazolyl]benzimidazole]
Tm (Calf thymus DNA; [5]): 74.3 °C | Tm (Calf thymus DNA; [6]): 75 °C | Tm (Calf thymus DNA; [7]): 77.7 °C | Tm (Calf thymus DNA; [8]): 81.5 °C | viability at 1 µM (BMG-1 cells [1]; [9]): 107% | viability at 10 µM (BMG-1 cells [1]; [10]): 105% | viability at 100 µM (BMG-1 cells [1]; [11]): 102% | viability at 10 µM (BMG-1 cells [1]; [12]): 30% | viability at 1 µM (BMG-1 cells [1]; [13]): 31% | viability at 10 µM (BMG-1 cells [1]; [14]): 89% | viability at 10 µM (BMG-1 cells [1]; [15]): 30% | viability at 10 µM (BMG-1 cells [1]; [16]): 5% | viability at 100 µM (BMG-1 cells [1]; [17]): 26% | cytotoxicity ([2]; 100µM, MTT up to 72 hours): do not show any cytotoxicity | Plating efficiency % (BMG-1 cells [3]; 1uM + 5 Gy): 21% | Plating efficiency % (BMG-1 cells [3]; 1uM, no irradiation): 73% | Plating efficiency % (BMG-1 cells [3]; 10uM + 2Gy): 60% | Plating efficiency % (BMG-1 cells [3]; 10uM + 5 Gy (Table 2)): 20% | Plating efficiency % (BMG-1 cells [3]; 10uM + 10 Gy): 3.5% | Plating efficiency % (BMG-1 cells [3]; 10uM, no irradiation): 71% | effect on growth (BMG-1 cells [3]; 10µM, no irradiation): increase in growth | Plating efficiency % (BMG-1 cells [3]; 100uM + 5 Gy): 18% | Plating efficiency % (BMG-1 cells [3]; 100uM, no irradiation): 69% | Plating efficiency % (BMG-1 cells [3]; [18]): 20% | radioprotection in comparison to Hoechst 33342 (BMG-1 cells [3]; conclusion from BMG-1 and Hek cell lines): better radioprotectors | effect on growth (BMG-1 cells [3]; low concentrations (upto 10µM), no irradiation): slight stimulatory effect on growth | growth kinetics of the treated cells (BMG-1 cells [4]): did not differ from the untreated cells | cytotoxicity at 100 µM (in vitro): 9% | viability at 100 µM (in vitro): 92% | Plating efficiency % (Hek cells): 25% | viability at 10 µM (Hek cells): 48%

COc1ccc(-c2nc3cc(-c4nc5cc(N6CCN(C)CC6)ccc5[nH]4)ccc3[nH]2)cc1OC [DMA, 5-(4-methylpiperazin-1-yl)-2-[2'-(3,4-dimethoxyphenyl)-5'-benzimidazolyl]benzimidazole]
viability at 1 µM (BMG-1 cells [1]; [9]): 97% | viability at 10 µM (BMG-1 cells [1]; [10]): 100% | viability at 100 µM (BMG-1 cells [1]; [11]): 95% | viability at 10 µM (BMG-1 cells [1]; [12]): 40% | viability at 1 µM (BMG-1 cells [1]; [13]): 32% | viability at 10 µM (BMG-1 cells [1]; [14]): 93% | viability at 10 µM (BMG-1 cells [1]; [15]): 40% | viability at 10 µM (BMG-1 cells [1]; [16]): 6% | viability at 100 µM (BMG-1 cells [1]; [17]): 38% | cytotoxicity ([2]; 100µM, MTT up to 72 hours): do not show any cytotoxicity | Plating efficiency % (BMG-1 cells [3]; 1uM + 5 Gy): 22% | Plating efficiency % (BMG-1 cells [3]; 1uM, no irradiation): 65% | Plating efficiency % (BMG-1 cells [3]; 10uM + 2Gy): 63% | Plating efficiency % (BMG-1 cells [3]; 10uM + 5 Gy (Table 2)): 27% | Plating efficiency % (BMG-1 cells [3]; 10uM + 10 Gy): 4% | Plating efficiency % (BMG-1 cells [3]; 10uM, no irradiation): 67% | Plating efficiency % (BMG-1 cells [3]; 100uM + 5 Gy): 25% | Plating efficiency % (BMG-1 cells [3]; 100uM, no irradiation): 64% | Plating efficiency % (BMG-1 cells [3]; [18]): 27% | cytotoxicity at 10 µM (in vitro): 3% | viability at 100 µM (in vitro): 73% | Plating efficiency % (Hek cells): 27% | viability at 10 µM (Hek cells): 50%

CCOc1ccc(-c2nc3ccc(-c4nc5ccc(N6CCN(C)CC6)cc5[nH]4)cc3[nH]2)cc1 [Hoechst 33342, reference compound]
viability at 10 µM (BMG-1 cells [1]; [12]): 10% | cytotoxicity ([2]; 10µM, MTT at 24, 48 and 72 hours): highly cytotoxic | Plating efficiency % (BMG-1 cells [3]; [18]): 20% | effect on cell survival (BMG-1 cells [3]; low concentrations, no irradiation): do not seem to have considerable effect on cell survival | viability at 100 µM (in vitro; cell survival, 100µM, no irradiation): 10% | viability at 10 µM (in vitro; surviving fraction, 10µM, no irradiation): 45% | Plating efficiency % (Hek cells): 20% | viability at 10 µM (Hek cells): 10%
